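Tested at 5 concentrations; 48 h exposure; 96-well plates; endpoints linearly interpolated, else capped at highest concentration. GI50 is the concentration that inhibits growth by half. TGI: concentration producing complete growth inhibition.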
Experiments:
Test in all cases: inhibition of tumour cell growth, NCI panel, 48 h
CCRF-CEM leukemia = test system: CCRF-CEM leukemia
HCT-116 colon = test system: HCT-116 colon
HS 578T breast = test system: HS 578T breast
HT29 colon = test system: HT29 colon
KM12 colon = test system: KM12 colon
M14 melanoma = test system: M14 melanoma
MDA-N = test system: MDA-N
NCI-H226 lung = test system: NCI-H226 lung
OVCAR-3 ovarian = test system: OVCAR-3 ovarian
SK-MEL-5 melanoma = test system: SK-MEL-5 melanoma
SR leukemia = test system: SR leukemia
T-47D breast = test system: T-47D breast

For `O=C1/C(=C\c2ccc(Cl)cc2Cl)Sc2scc(-c3ccc(O)c(O)c3)[n+]21`, the TGI (CCRF-CEM leukemia) was 39.4 µM, the TGI (HCT-116 colon) was 29.8 µM and the TGI (HS 578T breast) was greater than 100 µM. It also gave a TGI (HT29 colon) of 32.6 µM, a TGI (KM12 colon) of 33.9 µM and a TGI (M14 melanoma) of 40.6 µM. It also gave a TGI (MDA-N) of 60.1 µM, a TGI (NCI-H226 lung) of 35.4 µM and a TGI (OVCAR-3 ovarian) of 23.2 µM. It also gave a TGI (SK-MEL-5 melanoma) of 22.9 µM.

With `COc1cc(C2C(Cl)C(=O)N2n2cnc3ccccc3c2=O)ccc1O` (stereo unspecified) the TGI (CCRF-CEM leukemia) was greater than 100 µM, the TGI (HCT-116 colon) was greater than 100 µM and the TGI (HT29 colon) was greater than 100 µM. It also gave a TGI (KM12 colon) greater than 100 µM, a TGI (M14 melanoma) greater than 100 µM and a TGI (NCI-H226 lung) greater than 100 µM. For the same compound, the TGI (OVCAR-3 ovarian) was greater than 100 µM, the TGI (SK-MEL-5 melanoma) was greater than 100 µM and the TGI (SR leukemia) was greater than 100 µM.

In the case of `CCOC(=O)c1ccc(-c2cc(C)no2)[nH]1`, the TGI (CCRF-CEM leukemia) is reported as greater than 100 µM, the TGI (HCT-116 colon) is reported as greater than 100 µM and the TGI (HT29 colon) is reported as greater than 100 µM. The TGI (KM12 colon) was greater than 100 µM, the TGI (M14 melanoma) was greater than 100 µM and the TGI (MDA-N) was greater than 100 µM. For the same compound, the TGI (NCI-H226 lung) was greater than 100 µM, the TGI (OVCAR-3 ovarian) was greater than 100 µM and the TGI (SK-MEL-5 melanoma) was greater than 100 µM. The TGI (T-47D breast) was greater than 100 µM.

Work on `COC(=O)c1ccc(Cc2cc(Cc3ccc(C(=O)OC)cc3)cc(Cc3ccc(C(=O)OC)cc3)c2)cc1` yielded a TGI (HCT-116 colon) greater than 25 µM, a TGI (HS 578T breast) greater than 25 µM and a TGI (HT29 colon) greater than 25 µM. It also gave a TGI (KM12 colon) greater than 25 µM, a TGI (M14 melanoma) greater than 25 µM and a TGI (MDA-N) greater than 25 µM. The TGI (NCI-H226 lung) was greater than 25 µM, the TGI (OVCAR-3 ovarian) was greater than 25 µM and the TGI (SR leukemia) was greater than 25 µM.

`CCn1cnc2c(=S)nc(N)[nH]c21` was tested, and the TGI (CCRF-CEM leukemia) was greater than 100 µM, the TGI (HCT-116 colon) was greater than 100 µM and the TGI (HT29 colon) was greater than 100 µM. The TGI (KM12 colon) was greater than 100 µM, the TGI (M14 melanoma) was greater than 100 µM and the TGI (NCI-H226 lung) was greater than 100 µM. For the same compound, the TGI (OVCAR-3 ovarian) was greater than 100 µM and the TGI (SR leukemia) was greater than 100 µM.

Work on `Cc1cn(C2OC(CO[Si](C)(C)C(C)(C)C)C(N(C)O[Si](C)(C)C(C)(C)C)C2[Se]c2ccccc2)c(=O)[nH]c1=O` (stereo unspecified) yielded a TGI (CCRF-CEM leukemia) greater than 100 µM, a TGI (HCT-116 colon) of 19.9 µM and a TGI (HS 578T breast) of 7.58 µM. It also gave a TGI (HT29 colon) of 16.8 µM, a TGI (KM12 colon) of 16.2 µM and a TGI (M14 melanoma) of 50.8 µM. It also gave a TGI (MDA-N) greater than 100 µM, a TGI (NCI-H226 lung) of 21.7 µM and a TGI (OVCAR-3 ovarian) of 19.9 µM. The TGI (SK-MEL-5 melanoma) was 53.7 µM and the TGI (SR leukemia) was greater than 100 µM.

Work on `CCOC(=O)/C(=C/c1ccc(OC)cc1)N(CC)CC` yielded a TGI (CCRF-CEM leukemia) greater than 100 µM, a TGI (HCT-116 colon) greater than 100 µM and a TGI (HT29 colon) greater than 100 µM. The TGI (KM12 colon) was greater than 100 µM, the TGI (M14 melanoma) was greater than 100 µM and the TGI (NCI-H226 lung) was greater than 100 µM. It also gave a TGI (OVCAR-3 ovarian) greater than 100 µM, a TGI (SK-MEL-5 melanoma) greater than 100 µM and a TGI (SR leukemia) greater than 100 µM.

In the case of `CCCCCCOc1ccc(/C=N/Nc2cc(C)nc3ccc(Cl)cc23)cc1`, the GI50 (HT29 colon) is reported as 1.59 µM, the TGI (HT29 colon) is reported as 3.09 µM and the GI50 (KM12 colon) is reported as 1.67 µM. For the same compound, the TGI (KM12 colon) was 3.38 µM, the GI50 (M14 melanoma) was 1.71 µM and the TGI (M14 melanoma) was 3.36 µM. The GI50 (OVCAR-3 ovarian) was 2.05 µM, the TGI (OVCAR-3 ovarian) was 3.74 µM and the GI50 (SK-MEL-5 melanoma) was 1.69 µM. For the same compound, the TGI (SK-MEL-5 melanoma) was 3.06 µM, the GI50 (SR leukemia) was 0.336 µM and the TGI (SR leukemia) was 1.6 µM. For the same compound, the GI50 (T-47D breast) was 1.98 µM and the TGI (T-47D breast) was 3.97 µM.

With `O=C1c2cccc3cc([N+](=O)[O-])cc(c23)C(=O)N1Nc1ccc([N+](=O)[O-])cc1[N+](=O)[O-]` the TGI (CCRF-CEM leukemia) was 14.5 µM, the TGI (HCT-116 colon) was 34.3 µM and the TGI (HS 578T breast) was greater than 31.6 µM. The TGI (HT29 colon) was 24.2 µM, the TGI (KM12 colon) was 26.3 µM and the TGI (M14 melanoma) was greater than 74.9 µM. The TGI (NCI-H226 lung) was greater than 31.6 µM, the TGI (OVCAR-3 ovarian) was 82.8 µM and the TGI (SK-MEL-5 melanoma) was 21.1 µM. For the same compound, the TGI (SR leukemia) was 11.6 µM and the TGI (T-47D breast) was greater than 31.6 µM.

Compound `COc1ccc(C2Oc3cc(OC)c(OC)cc3C2CCl)cc1OC` (stereo unspecified) has a TGI (CCRF-CEM leukemia) greater than 100 µM, a TGI (HCT-116 colon) greater than 100 µM and a TGI (KM12 colon) greater than 100 µM. It also gave a TGI (M14 melanoma) greater than 100 µM, a TGI (NCI-H226 lung) greater than 100 µM and a TGI (OVCAR-3 ovarian) greater than 100 µM. The TGI (SK-MEL-5 melanoma) was greater than 100 µM and the TGI (SR leukemia) was greater than 100 µM.

`CC1=NN(c2nc(N)nc(COc3ccc(N)cc3)n2)C(C)(C)C1` gave a TGI (CCRF-CEM leukemia) greater than 100 µM, a TGI (HCT-116 colon) greater than 100 µM and a TGI (HS 578T breast) greater than 100 µM. For the same compound, the TGI (HT29 colon) was greater than 100 µM, the TGI (KM12 colon) was greater than 100 µM and the TGI (M14 melanoma) was greater than 100 µM. For the same compound, the TGI (NCI-H226 lung) was greater than 100 µM, the TGI (SK-MEL-5 melanoma) was greater than 100 µM and the TGI (SR leukemia) was greater than 100 µM. The TGI (T-47D breast) was greater than 100 µM.

In the case of `CCNC(=O)c1ccc(C)c(N=NN(C)C)c1`, the TGI (HCT-116 colon) is reported as greater than 100 µM, the TGI (HT29 colon) is reported as greater than 100 µM and the TGI (KM12 colon) is reported as greater than 100 µM. For the same compound, the TGI (M14 melanoma) was greater than 100 µM, the TGI (OVCAR-3 ovarian) was greater than 100 µM and the TGI (SK-MEL-5 melanoma) was greater than 100 µM.

With `O=C1/C(=C/c2ccco2)NC(=S)N1CN1CCCCC1` the TGI (CCRF-CEM leukemia) was greater than 100 µM, the TGI (HCT-116 colon) was greater than 100 µM and the TGI (HS 578T breast) was greater than 100 µM. The TGI (HT29 colon) was greater than 100 µM, the TGI (KM12 colon) was greater than 100 µM and the TGI (M14 melanoma) was greater than 100 µM. It also gave a TGI (MDA-N) greater than 100 µM, a TGI (NCI-H226 lung) greater than 100 µM and a TGI (OVCAR-3 ovarian) greater than 100 µM. It also gave a TGI (SK-MEL-5 melanoma) greater than 100 µM and a TGI (SR leukemia) greater than 100 µM.

Work on `Cc1[nH]c(=O)nc2sc(=NC3CCCCC3)n(C3CCCCC3)c(=O)c12` yielded a TGI (CCRF-CEM leukemia) greater than 100 µM, a TGI (HCT-116 colon) greater than 100 µM and a TGI (HT29 colon) greater than 100 µM. The TGI (KM12 colon) was greater than 100 µM, the TGI (M14 melanoma) was greater than 100 µM and the TGI (MDA-N) was greater than 100 µM. It also gave a TGI (NCI-H226 lung) greater than 100 µM, a TGI (OVCAR-3 ovarian) greater than 100 µM and a TGI (SK-MEL-5 melanoma) greater than 100 µM. For the same compound, the TGI (T-47D breast) was greater than 100 µM.

Work on `O=S(=O)(O)c1cc(N=Nc2c(O)ccc3ccccc23)cc2c(S(=O)(=O)O)cccc12` yielded a TGI (CCRF-CEM leukemia) greater than 100 µM, a TGI (HCT-116 colon) greater than 100 µM and a TGI (HS 578T breast) greater than 100 µM. The TGI (HT29 colon) was greater than 100 µM, the TGI (KM12 colon) was greater than 100 µM and the TGI (M14 melanoma) was greater than 100 µM. For the same compound, the TGI (NCI-H226 lung) was greater than 100 µM, the TGI (OVCAR-3 ovarian) was greater than 100 µM and the TGI (SK-MEL-5 melanoma) was greater than 100 µM. It also gave a TGI (SR leukemia) greater than 100 µM.

— PubChem BioAssay (NCI)
